Test results taken from ChEMBL document CHEMBL1201862, “PubChem BioAssay data set” (2004).
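How tested: cells in 96-well plates exposed to compound for 48 hours at five concentrations. GI50 is the concentration that inhibits growth by half.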 Active and inactive are the calls of the source. Cut-off read from the data, not from the text of the source: active = GI50 up to about 1.1 µM and inactive = higher.

Assays:
Experiment in all cases: NCI anticancer screen, dose series, 48 h
786-0 = tested on: 786-0
A549 = tested on: A549
ACHN = tested on: ACHN
BT-549 = tested on: BT-549
CAKI-1 = tested on: CAKI-1
COLO 205 = tested on: COLO 205
DU-145 = tested on: DU-145
EKVX = tested on: EKVX
HCC 2998 = tested on: HCC 2998
HCT-15 = tested on: HCT-15
HOP-62 = tested on: HOP-62
HT-29 = tested on: HT-29
Hs-578T = tested on: Hs-578T
IGROV-1 = tested on: IGROV-1
K562 = tested on: K562
KM12 = tested on: KM12
M14 = tested on: M14
MCF7 = tested on: MCF7
MDA-MB-231 = tested on: MDA-MB-231
MDA-MB-435 = tested on: MDA-MB-435
MDA-N = tested on: MDA-N
MOLT-4 = tested on: MOLT-4
Malme-3M = tested on: Malme-3M
NCI-H226 = tested on: NCI-H226
NCI-H23 = tested on: NCI-H23
NCI-H460 = tested on: NCI-H460
NCI-H522 = tested on: NCI-H522
NCI/ADR-RES = tested on: NCI/ADR-RES
OVCAR-3 = tested on: OVCAR-3
OVCAR-5 = tested on: OVCAR-5
OVCAR-8 = tested on: OVCAR-8
PC-3 = tested on: PC-3
RPMI-8226 = tested on: RPMI-8226
RXF 393 = tested on: RXF 393
SF-268 = tested on: SF-268
SF-295 = tested on: SF-295
SF-539 = tested on: SF-539
SK-MEL-28 = tested on: SK-MEL-28
SK-MEL-2 = tested on: SK-MEL-2
SK-MEL-5 = tested on: SK-MEL-5
SK-OV-3 = tested on: SK-OV-3
SN12C = tested on: SN12C
SNB-19 = tested on: SNB-19
SNB-75 = tested on: SNB-75
SR = tested on: SR
SW-620 = tested on: SW-620
T47D = tested on: T47D
TK-10 = tested on: TK-10
U-251 = tested on: U-251
UACC-257 = tested on: UACC-257
UACC-62 = tested on: UACC-62
UO-31 = tested on: UO-31
A498 = tested on: A498
CCRF-CEM = tested on: CCRF-CEM
HCT-116 = tested on: HCT-116
HL-60 = tested on: HL-60
HOP-92 = tested on: HOP-92
LOX IMVI = tested on: LOX IMVI
OVCAR-4 = tested on: OVCAR-4

Measured: GI50

CC(NC(=O)C(CC(=O)OCc1ccccc1)NC(=O)OCc1ccccc1)c1ccccc1 (stereo unspecified)
> 100 µM: HCT-15
inactive: 786-0 49.2 µM | A549 73.5 µM | ACHN 67.5 µM | BT-549 > 100 µM | CAKI-1 83.4 µM | COLO 205 > 100 µM | DU-145 > 100 µM | EKVX > 100 µM | HCC 2998 > 100 µM | HOP-62 49.2 µM | HT-29 > 100 µM | Hs-578T > 100 µM | IGROV-1 > 100 µM | K562 > 100 µM | KM12 > 100 µM | M14 27.7 µM | MCF7 > 100 µM | MDA-MB-231 79.3 µM | MDA-MB-435 > 100 µM | MDA-N > 100 µM | MOLT-4 > 100 µM | Malme-3M 73.3 µM | NCI-H226 43.5 µM | NCI-H23 > 100 µM | NCI-H460 > 100 µM | NCI-H522 37.4 µM | NCI/ADR-RES > 100 µM | OVCAR-3 > 100 µM | OVCAR-5 > 100 µM | OVCAR-8 > 100 µM | PC-3 35.3 µM | RPMI-8226 > 100 µM | RXF 393 19.2 µM | SF-268 > 100 µM | SF-295 55.1 µM | SF-539 64.3 µM | SK-MEL-28 90.2 µM | SK-MEL-2 > 100 µM | SK-MEL-5 > 100 µM | SK-OV-3 83.2 µM | SN12C > 100 µM | SNB-19 48 µM | SNB-75 > 100 µM | SR > 100 µM | SW-620 > 100 µM | T47D > 100 µM | TK-10 > 100 µM | U-251 > 100 µM | UACC-257 > 10 µM | UACC-62 37.8 µM | UO-31 > 100 µM

C=CCOc1ccc(C(/N=N\c2ccc(Cl)cc2)=N/NC(=O)c2ccccc2)cc1OC
80.7 µM: HCT-15
inactive: 786-0 > 100 µM | A498 > 100 µM | A549 > 100 µM | ACHN 89.1 µM | BT-549 20.4 µM | CAKI-1 > 100 µM | CCRF-CEM 29.5 µM | COLO 205 85.3 µM | DU-145 > 100 µM | EKVX > 100 µM | HCC 2998 39 µM | HCT-116 64.4 µM | HL-60 33.8 µM | HOP-62 > 100 µM | HOP-92 32.1 µM | HT-29 52.7 µM | Hs-578T 73.1 µM | IGROV-1 43.8 µM | KM12 38.5 µM | LOX IMVI 48 µM | M14 73.5 µM | MCF7 > 100 µM | MDA-MB-231 > 100 µM | MDA-MB-435 34.7 µM | MDA-N 35 µM | MOLT-4 32.1 µM | Malme-3M 51.3 µM | NCI-H226 53.7 µM | NCI-H23 60 µM | NCI-H460 36.1 µM | NCI-H522 41.3 µM | NCI/ADR-RES 72.4 µM | OVCAR-3 62.7 µM | OVCAR-4 76.7 µM | OVCAR-5 > 100 µM | OVCAR-8 37.5 µM | PC-3 49.5 µM | SF-268 > 100 µM | SF-295 > 100 µM | SK-MEL-28 19 µM | SK-MEL-2 > 100 µM | SK-MEL-5 29.9 µM | SN12C 50.5 µM | SNB-19 > 100 µM | SNB-75 60.3 µM | SR > 100 µM | SW-620 > 100 µM | T47D 22 µM | TK-10 > 100 µM | U-251 57.3 µM | UACC-257 41.8 µM | UACC-62 23.8 µM | UO-31 54.8 µM

Cc1ccc2c(sc(-c3ccc4c(c3)sc(-c3ccc(N(C)C)cc3)[n+]4C)[n+]2C)c1S(=O)(=O)O.Cc1ccc2c(sc(-c3ccc4c(c3)sc(-c3ccc5c(c3)sc(-c3ccc(N(C)C)cc3)[n+]5C)[n+]4C)[n+]2C)c1S(=O)(=O)O
inactive: 786-0 > 100 µM | A498 > 100 µM | A549 > 100 µM | ACHN 62.7 µM | BT-549 30.8 µM | CAKI-1 10 µM | CCRF-CEM 10 µM | COLO 205 > 100 µM | DU-145 > 100 µM | EKVX 76 µM | HCC 2998 > 100 µM | HCT-116 > 100 µM | HL-60 52.8 µM | HOP-92 > 100 µM | HT-29 > 100 µM | Hs-578T 72.4 µM | IGROV-1 9.79 µM | K562 35.5 µM | KM12 73.1 µM | LOX IMVI > 100 µM | M14 > 100 µM | MCF7 > 100 µM | MDA-MB-231 22 µM | MDA-MB-435 > 100 µM | MDA-N > 100 µM | MOLT-4 51.9 µM | NCI-H23 > 100 µM | NCI-H460 10 µM | NCI-H522 30.4 µM | NCI/ADR-RES > 100 µM | OVCAR-3 > 100 µM | OVCAR-4 43 µM | OVCAR-5 > 100 µM | OVCAR-8 > 100 µM | PC-3 > 100 µM | RPMI-8226 80.2 µM | SF-268 > 100 µM | SF-295 > 100 µM | SF-539 > 100 µM | SK-MEL-28 > 100 µM | SK-MEL-2 > 100 µM | SK-MEL-5 > 100 µM | SK-OV-3 > 100 µM | SN12C > 100 µM | SNB-19 > 100 µM | SNB-75 > 100 µM | SW-620 > 100 µM | T47D 85.9 µM | TK-10 > 100 µM | U-251 > 100 µM | UACC-257 > 100 µM | UACC-62 > 100 µM | UO-31 > 100 µM
active: SR 1 µM
66.1 µM: HCT-15
